Laboratory results taken from patent US20240209028A1, “CNP COMPOUNDS” (priority 2022, published 2024).
Several values for one entry are separate records, joined by “and”; a condition that tells them apart may be missing. Identical values can stand only once. Starred links: 1 amine or outer side, 2 acyl side, 3 side chain; linkers in the order of their positions; H or OH if unused. Positions of bridges follow the written chain, without caps; N, C: chain ends. Residues, ends and D or L forms follow the SMILES beside them. *: point of attachment. C18 diacid = O=C(O)CCCCCCCCCCCCCCCCC(=O)*; γGlu = O=C(O)[C@H](CCC(=O)[*:2])N[*:1]; AEEA = NCCOCCOCC(=O)O

Test: High-Molecular-Weight-Protein (HMWP) formation by SEC-UPLC
Type: physicochemical
Conditions: increase over two weeks at 37° C., pH 4.0
Method: In order to assess the propensity of CNP compounds to form covalent dimers or oligomers when formulated the High-Molecular-Weight-Protein content of CNP compound formulations at pH 4.0 and 6.5 were determined.
Procedure: The relative amount of covalent HMWP was assessed using SEC-UPLC. SEC-UPLC was conducted using a Waters UPLC Protein BEH SEC column, 125A, 4.6×150 mm, 1.7 μm, with isocratic elution (0.3 M NaCl, 10 mM NaH2PO4 and 5 mM H3PO4, 50% (v/v) isopropanol, pH 2.4) with a flow rate of 0.3 mL/min, a column temperature at 50° C. with UV-detection at 215 nm. The total area of peaks eluting prior to the monomeric main peak was termed HMWP and given on a percentage scale relative to the total peptide peak area.
(§1) Results: HMWP Formation Following 2-Weeks Quiescent Incubation at 37° C.: Samples at pH 4.0 were prepared as described in Example 5 and the amount of HMWP was determined as described above. Samples were incubated for two weeks at 37° C. and the amount of HMWP was determined again. The increase in HMWP over two weeks incubation at 37° C. are reported in Table 10 (in case the incubation period deviated from two weeks the increase in HMWP was normalized to two weeks assuming a constant formation rate).
as §1, with “Samples” for “Results: HMWP Formation Following 2-Weeks Quiescent Incubation at 37° C.: Samples”, “6.5” for “4.0”, “11” for “10”

Row | SMILES | 2-Week HMWP formation at pH 4.0 (%), % relative to total peak area
1 | CC[C@H](C)[C@@H]1NC(=O)[C@H](CCCNC(=N)N)NC(=O)[C@H](CC(=O)O)NC(=O)[C@H](CC(C)C)NC(=O)[C@@H]2CCCN2C(=O)[C@H](CC(C)C)NC(=O)CNC(=O)[C@H](Cc2ccccc2)NC(=O)[C@@H](NC(=O)CNC(=O)[C@H](CCCCN)NC(=O)[C@H](CO)NC(=O)[C@H](CC(C)C)NC(=O)CNC(=O)[C@H](CCCCN)NC(=O)[C@H](CCCCN)NC(=O)[C@H](CCC(N)=O)NC(=O)[C@H](C)NC(=O)CNC(=O)[C@H](CCCCN)NC(=O)[C@H](Cc2ccc(O)cc2)NC(=O)[C@H](CCCCN)NC(=O)[C@H](CCCNC(=N)N)NC(=O)[C@H](C)NC(=O)COCCOCCNC(=O)COCCOCCNC(=O)CC[C@H](NC(=O)CC[C@H](NC(=O)CC[C@H](NC(=O)CC[C@H](NC(=O)CC[C@H](NC(=O)CCCCCCCCCCCCCCCCC(=O)O)C(=O)O)C(=O)O)C(=O)O)C(=O)O)C(=O)O)CSSC[C@@H](C(=O)O)NC(=O)CNC(=O)[C@H](CC(C)C)NC(=O)CNC(=O)[C@H](CO)NC(=O)[C@H](CC(C)C)NC(=O)[C@H](CO)NC(=O)CNC1=O [compound 1470] ({C18 diacid-γGlu-γGlu-γGlu-γGlu-γGlu-AEEA-AEEA}-ARKYKGAQKKGLSKGCFGLPLDRIGSLSGLGC-OH; disulfide 16-32) | 1.75%
2 | CC[C@H](C)[C@@H]1NC(=O)[C@H](CCCNC(=N)N)NC(=O)[C@H](CC(=O)O)NC(=O)[C@H](CC(C)C)NC(=O)[C@@H]2CCCN2C(=O)[C@H](CC(C)C)NC(=O)CNC(=O)[C@H](Cc2ccccc2)NC(=O)[C@@H](NC(=O)CNC(=O)[C@H](CO)NC(=O)[C@H](CO)NC(=O)[C@H](CC(C)C)NC(=O)CNC(=O)[C@H](CCCCN)NC(=O)[C@H](CCCCN)NC(=O)[C@H](CCC(N)=O)NC(=O)[C@H](C)NC(=O)CNC(=O)[C@H](CCCCN)NC(=O)[C@H](Cc2ccc(O)cc2)NC(=O)[C@H](CCCCN)NC(=O)[C@H](CCCNC(=N)N)NC(=O)[C@H](C)NC(=O)[C@H](CCC(N)=O)NC(=O)[C@@H]2CCCN2C(=O)[C@H](Cc2c[nH]cn2)NC(=O)[C@H](CCC(=O)O)NC(=O)[C@H](CCC(N)=O)NC(=O)COCCOCCNC(=O)COCCOCCNC(=O)CC[C@H](NC(=O)CC[C@H](NC(=O)CC[C@H](NC(=O)CC[C@H](NC(=O)CCCCCCCCCCCCCCCCC(=O)O)C(=O)O)C(=O)O)C(=O)O)C(=O)O)CSSC[C@@H](C(=O)O)NC(=O)CNC(=O)[C@H](CC(C)C)NC(=O)CNC(=O)[C@H](CO)NC(=O)[C@H](CC(C)C)NC(=O)[C@H](CO)NC(=O)CNC1=O [compound 1473] ({C18 diacid-γGlu-γGlu-γGlu-γGlu-AEEA-AEEA}-QEHPQARKYKGAQKKGLSSGCFGLPLDRIGSLSGLGC-OH; disulfide 21-37; C-terminus assumed) | 0.9% and 1.26%
3 | CC[C@H](C)[C@@H]1NC(=O)[C@H](CCCNC(=N)N)NC(=O)[C@H](CCC(=O)O)NC(=O)[C@H](CC(C)C)NC(=O)[C@@H]2CCCN2C(=O)[C@H](CC(C)C)NC(=O)CNC(=O)[C@H](Cc2ccccc2)NC(=O)[C@@H](NC(=O)CNC(=O)[C@H](CO)NC(=O)[C@H](CO)NC(=O)[C@H](CC(C)C)NC(=O)CNC(=O)[C@H](CCCCN)NC(=O)[C@H](CCCCN)NC(=O)[C@H](CCC(N)=O)NC(=O)[C@H](C)NC(=O)CNC(=O)[C@H](CCCCN)NC(=O)[C@H](Cc2ccc(O)cc2)NC(=O)[C@H](CCCCN)NC(=O)[C@H](CCCNC(=N)N)NC(=O)[C@H](C)NC(=O)[C@H](CCC(N)=O)NC(=O)[C@@H]2CCCN2C(=O)[C@H](Cc2c[nH]cn2)NC(=O)[C@H](CCC(=O)O)NC(=O)[C@H](CCC(N)=O)NC(=O)CC[C@H](NC(=O)CC[C@H](NC(=O)CC[C@H](NC(=O)CC[C@H](NC(=O)CCCCCCCCCCCCCCCCC(=O)O)C(=O)O)C(=O)O)C(=O)O)C(=O)O)CSSC[C@@H](C(=O)O)NC(=O)CNC(=O)[C@H](CC(C)C)NC(=O)CNC(=O)[C@H](CO)NC(=O)[C@H](CC(C)C)NC(=O)[C@H](CO)NC(=O)CNC1=O [compound 9483] ({C18 diacid-γGlu-γGlu-γGlu-γGlu}-QEHPQARKYKGAQKKGLSSGCFGLPLERIGSLSGLGC-OH; disulfide 21-37) | 3.0%

Same assay, conditions: increase over two weeks at 37° C., pH 6.5

Row | SMILES | 2-Week HMWP formation at pH 6.5 (%), % relative to total peak area [%]
4 | CC[C@H](C)[C@@H]1NC(=O)[C@H](CCCNC(=N)N)NC(=O)[C@H](CC(=O)O)NC(=O)[C@H](CC(C)C)NC(=O)[C@@H]2CCCN2C(=O)[C@H](CC(C)C)NC(=O)CNC(=O)[C@H](Cc2ccccc2)NC(=O)[C@@H](NC(=O)CNC(=O)[C@H](CCC(N)=O)NC(=O)[C@H](CO)NC(=O)[C@H](CC(C)C)NC(=O)CNC(=O)[C@H](CCCCN)NC(=O)[C@H](CCCCN)NC(=O)[C@H](CCC(N)=O)NC(=O)[C@H](C)NC(=O)CNC(=O)[C@H](CCCCN)NC(=O)[C@H](Cc2ccc(O)cc2)NC(=O)[C@H](CCCCN)NC(=O)[C@H](CCCNC(=N)N)NC(=O)[C@H](C)NC(=O)[C@H](CCC(N)=O)NC(=O)[C@@H]2CCCN2C(=O)[C@H](Cc2c[nH]cn2)NC(=O)[C@H](CCC(=O)O)NC(=O)[C@H](CCC(N)=O)NC(=O)COCCOCCNC(=O)COCCOCCNC(=O)COCCOCCNC(=O)COCCOCCNC(=O)CC[C@H](NC(=O)CC[C@H](NC(=O)CC[C@H](NC(=O)CC[C@H](NC(=O)CC[C@H](NC(=O)CC[C@H](NC(=O)CCCCCCCCCCCCCCCCC(=O)O)C(=O)O)C(=O)O)C(=O)O)C(=O)O)C(=O)O)C(=O)O)CSSC[C@@H](C(=O)O)NC(=O)CNC(=O)[C@H](CC(C)C)NC(=O)CNC(=O)[C@H](CO)NC(=O)[C@H](CC(C)C)NC(=O)[C@H](CO)NC(=O)CNC1=O [compound 1404] ({C18 diacid-γGlu-γGlu-γGlu-γGlu-γGlu-γGlu-AEEA-AEEA-AEEA-AEEA}-QEHPQARKYKGAQKKGLSQGCFGLPLDRIGSLSGLGC-OH; disulfide 21-37) | 1.8
5 | CC[C@H](C)[C@@H]1NC(=O)[C@H](CCCNC(=N)N)NC(=O)[C@H](CC(=O)O)NC(=O)[C@H](CC(C)C)NC(=O)[C@@H]2CCCN2C(=O)[C@H](CC(C)C)NC(=O)CNC(=O)[C@H](Cc2ccccc2)NC(=O)[C@@H](NC(=O)CNC(=O)[C@H](CO)NC(=O)[C@H](CO)NC(=O)[C@H](CC(C)C)NC(=O)CNC(=O)[C@H](CCCCN)NC(=O)[C@H](CCCCN)NC(=O)[C@H](CCC(N)=O)NC(=O)[C@H](C)NC(=O)CNC(=O)[C@H](Cc2c[nH]cn2)NC(=O)[C@H](CCC(=O)O)NC(=O)COCCOCCNC(=O)COCCOCCNC(=O)CC[C@H](NC(=O)CCCCCCCCCCCCCCCCC(=O)O)C(=O)O)CSSC[C@@H](C(=O)O)NC(=O)CNC(=O)[C@H](CC(C)C)NC(=O)CNC(=O)[C@H](CO)NC(=O)[C@H](CC(C)C)NC(=O)[C@H](CO)NC(=O)CNC1=O [compound 1310] ({C18 diacid-γGlu-AEEA-AEEA}-EHGAQKKGLSSGCFGLPLDRIGSLSGLGC-OH; disulfide 13-29) | 0.87
6 | CC[C@H](C)[C@@H]1NC(=O)[C@H](CCCNC(=N)N)NC(=O)[C@H](CC(=O)O)NC(=O)[C@H](CC(C)C)NC(=O)[C@@H]2CCCN2C(=O)[C@H](CC(C)C)NC(=O)CNC(=O)[C@H](Cc2ccccc2)NC(=O)[C@@H](NC(=O)CNC(=O)[C@H](CCC(N)=O)NC(=O)[C@H](CO)NC(=O)[C@H](CC(C)C)NC(=O)CNC(=O)[C@H](CCCCN)NC(=O)[C@H](CCCCN)NC(=O)[C@H](CCC(N)=O)NC(=O)[C@H](C)NC(=O)CNC(=O)[C@H](CCCCN)NC(=O)[C@H](Cc2ccc(O)cc2)NC(=O)COCCOCCNC(=O)COCCOCCNC(=O)COCCOCCNC(=O)COCCOCCNC(=O)CC[C@H](NC(=O)CC[C@H](NC(=O)CC[C@H](NC(=O)CCCCCCCCCCCCCCCCC(=O)O)C(=O)O)C(=O)O)C(=O)O)CSSC[C@@H](C(=O)O)NC(=O)CNC(=O)[C@H](CC(C)C)NC(=O)CNC(=O)[C@H](CO)NC(=O)[C@H](CC(C)C)NC(=O)[C@H](CO)NC(=O)CNC1=O [compound 9480] ({C18 diacid-γGlu-γGlu-γGlu-AEEA-AEEA-AEEA-AEEA}-YKGAQKKGLSQGCFGLPLDRIGSLSGLGC-OH; disulfide 13-29) | 2.65
7 | CC[C@H](C)[C@@H]1NC(=O)[C@H](CCCNC(=N)N)NC(=O)[C@H](CC(=O)O)NC(=O)[C@H](CC(C)C)NC(=O)[C@@H]2CCCN2C(=O)[C@H](CC(C)C)NC(=O)CNC(=O)[C@H](Cc2ccccc2)NC(=O)[C@@H](NC(=O)CNC(=O)[C@H](CCC(N)=O)NC(=O)[C@H](CO)NC(=O)[C@H](CC(C)C)NC(=O)CNC(=O)[C@H](CCCCN)NC(=O)[C@H](CCCCN)NC(=O)[C@H](CCC(N)=O)NC(=O)[C@H](C)NC(=O)CNC(=O)[C@H](CCCCN)NC(=O)[C@H](Cc2ccc(O)cc2)NC(=O)[C@H](CCCCN)NC(=O)[C@H](CCCNC(=N)N)NC(=O)[C@H](C)NC(=O)COCCOCCNC(=O)COCCOCCNC(=O)CC[C@H](NC(=O)CC[C@H](NC(=O)CC[C@H](NC(=O)CC[C@H](NC(=O)CC[C@H](NC(=O)CCCCCCCCCCCCCCCCC(=O)O)C(=O)O)C(=O)O)C(=O)O)C(=O)O)C(=O)O)CSSC[C@@H](C(=O)O)NC(=O)CNC(=O)[C@H](CC(C)C)NC(=O)CNC(=O)[C@H](CO)NC(=O)[C@H](CC(C)C)NC(=O)[C@H](CO)NC(=O)CNC1=O [compound 1453] ({C18 diacid-γGlu-γGlu-γGlu-γGlu-γGlu-AEEA-AEEA}-ARKYKGAQKKGLSQGCFGLPLDRIGSLSGLGC-OH; disulfide 16-32) | 3.94
